Experimental data: patent US20250144127A1, “LONG-CHAIN COMPOUND AND USE THEREOF” (Burgeon Therapeutics Co., Ltd., priority 2021, published 2025)

Tests used:
[1] = system: primary mouse hepatocytes; experiment: Inhibition of de novo lipid synthesis in primary hepatocytes, [1,2-14C]-sodium acetate tracer; format: cell-based; settings: Hepatocyte, compound 12.5 μM, 4 h, [1,2-14C]-acetate, read-out: Lipid synthesis inhibition (%) (mean ± SD)
Procedure: Primary hepatic cell isolation and walling: the mouse liver was lavaged by calcium-free perfusate, then digested using collagenase and mouse primary hepatocytes were obtained by density gradient centrifugation, and were inoculated in 6-well plates at a density of 3×10^5/ml (0.2% gelatin was coated before inoculating). After inoculating, the cells were cultured and adhered for 6 h. The medium was changed to serum-free LG-DMEM (containing 2× double antibody) and starved the cells overnight.
Isotope tracing: the next day, the medium was switched to serum-free LG-DMEM containing 10 nM insulin and the corresponding concentration of compounds (1950 μL, 4 replicate wells per group); 0.1 μCi of [1,2-^14C]-acetate serum-free medium was added to each well, and the plates were then incubated for 4 h in the incubator.
Lipid saponification: Add 1.6 mL of ice PBS to each well for washing 3 times, shake the plate to dry and add 600 μL of 0.5 M KOH to each well to lysis for 1 h. Pipette 480 μL into a glass test tube with 400 μL of 20% KOH (methanol was used as solvent), shake and mix well, and then place it in a water bath at 95° C. to saponify for 3 h. The remaining lysate was used for the determination of the concentration of proteins. Add 400 μL of petroleum ether to each tube, pipette 5-6 times and centrifuge at 2500 rpm for 5 min, take 350 μL of the upper layer of the clear solution to the EP tube, and then add 400 μL of petroleum ether to repeat the extraction for 2 times (a total of 3 times). After complete transfer of the supernatant, 200 μL of water and 400 μL of 5N sulfuric acid were added to each tube for acidification, and the mixture was shaken and mixed. Add 400 μL of petroleum ether to each tube, pipette 5-6 times and centrifuge at 2500 rpm for 5 min, take 350 μL of the upper layer of the clear solution to the EP tube, then add 400 μL of petroleum ether and repeat the extraction for 2 times (a total of 3 times). Place in a fume hood and evaporate the petroleum ether overnight.
Isotope participation quantification: 1700 μL of scintillation solution was added to each tube and read.
Data processing and analysis: Firstly, the isotopic reference (R control, unit: CCPM/mg protein) of free fatty acids and cholesterol was calculated for the Control group of untreated mouse primary hepatocytes within 4 hours, which represented the basal synthesis. The percent inhibition of lipid synthesis was then calculated for each concentration group of the sample.

[2] = Oral pharmacokinetics in ICR mice; format: in vivo, mouse
Procedure: Dosing regimen: 6 normal ICR mice, male, were divided into 2 groups (n=3), one group was orally given the positive control ETC-1002, and one group was orally given the tested compound A3, both administered at a dose of 30 mg/kg; blood was taken from the eye orbits at different time points before and after the administration of the drug, and the plasma drug concentration was detected.

[3] = system: primary hepatocytes from WT mice; experiment: De novo lipid synthesis in WT primary hepatocytes, [14C]-citric acid tracer; format: cell-based; settings: WT mouse hepatocytes, [14C]-citric acid substrate
[4] = system: ACLY knockdown primary hepatocytes; experiment: De novo lipid synthesis in ACLY knockdown primary hepatocytes, [14C]-citric acid tracer; format: cell-based, mouse; settings: [14C]-citric acid substrate
Excerpt: Test protocol: In order to further investigate the dependence of the inhibitory effect of the series of compounds on de novo lipid synthesis on ACLY, the inventors chose ACLY knockdown primary hepatocytes for further evaluation of de novo lipid synthesis, while compound ETC-1002 was used as a positive control. Specifically, the experimental protocol was as above, and 0.1 μCi/well [^14C]-citric acid was used for tracing.

[5] = male, mouse, ICR mice, oral, 30 mg/kg, plasma

SMILES: CC(C)(CCCC/C=C/CCCCCC(C)(C)C(=O)O)C(=O)O [Compound A3]
- inhibition at 12.5 µM [1]: 71.2 ± 4.3%
- AUC(0-inf) [2, 5]: 74200 ng·h/mL
- AUC(0-t) [2, 5]: 63700 ng·h/mL
- Cmax [2, 5]: 13400 ng/mL
- half-life [2, 5]: 5.65 h
- MRT inf ([2]; male, mouse, ICR mice, oral, 30 mg/kg, plasma, read-out: MRT0-∞): 8.01 h
- plasma exposure relative to Bempedoic acid ([2]; same oral dose): more than 4 times
- de novo synthesis of triglycerides ([3]; FIG. 1 A): significantly inhibited
- de novo synthesis of cholesterol ([3]; FIG. 1 B): significantly inhibited
- inhibitory effect on de novo synthesis of cholesterol [4]: significantly attenuated or even the inhibitory effect was not manifested
- inhibitory effect on de novo synthesis of triglycerides [4]: significantly attenuated or even the inhibitory effect was not manifested
